Test results from patent US10267737B2, “Near-infrared fluorescent probe for detecting alkaline phosphatase and manufacturing method thereof” (KOREA RESEARCH INSTITUTE OF BIOSCIENCE AND BIOTECHNOLOGY, priority 2016, dated 2019).

Columns and labels:
ALP [1] = assay: Evaluation of sensitivity for ALP with ALP inhibitor p-BTO pre-treatment; assay type: biochemical; settings: for sensitivity for ALP: with and without p-BTO pre-treatment
Procedure: After pre-treating with the ALP inhibitor p-BTO (p-bromotetramisole oxalate) at 1-2.5 mM, the fluorescent probe was mixed with ALP.

ALP [2] = assay: Fluorescence response depending on ALP concentration; assay type: biochemical; settings: for new absorption peak in the presence of ALP: probe 5 μM, ALP 0.1 UmL^−1, Tris-HCl 10 mM, pH 7.4; for fluorescence due to dephosphorylation of ALP: λex=685 nm
Procedure: Reactivity depending on ALP concentration was evaluated for the NIR-Phos-1 and NIR-Phos-2 fluorescent probes. After dissolving the fluorescent probe (5 μM) in a Tri-HCl buffer (10 mM, pH 7.4), the fluorescence spectrum occurring as a result of reaction with ALP (0.1 UmL^−1) was investigated.
From FIG. 5B and FIG. 5D, it can be seen that fluorescence spectra are changed variously by adding a Tris-HCl buffer (10 mM, pH 7.4) to ALP (10^−5 to 1.0 UmL^−1) of various concentrations.

ALP [3] = assay: Evaluation of selective ALP detection; assay type: biochemical; settings: versus BSA, trypsin, lysozyme, AcHE, GOx, uricase, thrombin
Text: ALP, BSA, trypsin, lysozyme, acetylcholinesterase (AcHE), glucose oxidase (GOx), uricase and thrombin were used for the evaluation.

[4] = Fluorescence stability (photostability) test; assay type: physicochemical; settings: 685 nm light, 150-W xenon lamp, 1 hour, Tris-HCl 10 mM, pH 7.4
Procedure: The photostability of a fluorescent probe is important for in-vitro and in-vivo fluorescence detection. Therefore, the photostability of the NIR-Phos-1 and NIR-Phos-2 fluorescent probes was evaluated by irradiating light at 685 nm from a 150-W xenon lamp for 1 hour in a Tris-HCl buffer (10 mM, pH 7.4) and measuring the change in fluorescence intensity.

[5] = Affinity for calcium salts, NIR fluorescence imaging; assay type: binding; settings: PBS buffer
Procedure: The affinity of the NIR-Phos-1 and NIR-Phos-2 fluorescent probes for a calcium salt-containing scaffold was evaluated. As the scaffold, calcium carbonate (CC), calcium phosphate (CP), hydroxyapatite (HA), calcium perchlorate (CPC), calcium chloride (CCH) and calcium nitrate (CN) were used. The fluorescent probe and the scaffold were immersed in a PBS buffer and subjected to NIR fluorescence imaging.

[6] = Affinity for scaffold, light absorption of probe solution after adsorption; assay type: binding; settings: CDHA scaffold
[7] = as above; assay type: binding; settings: CDHA/DCPD scaffold

SMILES	sensitivity for ALP (ALP [1])	new absorption peak in the presence of ALP (ALP [2])	fluorescence due to dephosphorylation of ALP (ALP [2])	selective detection of ALP (ALP [3])	photostability (change in fluorescence intensity) [4]	affinity for hydroxyapatite (HA) particles compared to calcium salts CC, CP, CPC, CCH, CN [5]	decrease of light absorption by the probe solution after adsorption [6]	decrease of light absorption by the probe solution after adsorption [7]	hydrolysis of the fluorescent probe and ALP (ALP [1]; p-BTO 1-2.5 mM pre-treatment, fluorescence intensity decreased gradually as p-BTO concentration increased)
CC[N+]1=C(/C=C/C2=C3Oc4cc(OCc5ccc(OP(=O)(O)O)cc5)ccc4C=C3CCC2)C(C)(C)c2cc(S(=O)(=O)[O-])ccc21 [NIR-Phos-1, (E)-1-ethyl-3,3-dimethyl-2-(2-(6-((4-(phosphonooxy)benzyl)oxy)-2,3-dihydro-1H-xanthen-4-yl)vinyl)-3H-indol-1-ium-5-sulfonate]	good sensitivity	710 nm	710 nm	selectively detect ALP only	superior photostability	higher affinity	29.4%	3.8%	
CC[N+]1=C(/C=C/C2=C3Oc4cc(OP(=O)(O)O)ccc4C=C3CCC2)C(C)(C)c2cc(S(=O)(=O)[O-])ccc21 [NIR-Phos-2, (E)-1-ethyl-3,3-dimethyl-2-(2-(6-(phosphonooxy)-2,3-dihydro-1H-xanthen-4-yl)vinyl)-3H-indol-1-ium-5-sulfonate]	good sensitivity	710 nm	710 nm	selectively detect ALP only	superior photostability	higher affinity			
Brc1ccc(C2CN3CCSC3=N2)cc1.O=C(O)C(=O)O (stereo not drawn) [p-BTO, p-bromotetramisole oxalate, reference compound]									inhibited
